Reference: patent US20130090327A1, “Inhibitors of Protein Tyrosine Kinase Activity” (METHYLGENE INC., priority 2011, published 2013)
Where “and” joins values, the source holds several entries; their conditions need not be identical. Equal entries are not always repeated. Each block holds one molecule with its values, some of them ahead of it.

Key:
[1] = system: choroidal neovascularization (CNV); test: In Vivo Choroidal Neovascularization (CNV) Model; set-up: species or system Brown-Norway rats; details: for CNV area, average: group average, Day 10, rat; for CNV area, individual animal: injection on Day 3, measured Day 10, rat; for CNV area % of control / inhibition (CNV area): versus vehicle group, rat
Excerpt: In Vivo Choroidal Neovascularization (CNV) Model
This test measures the capacity of compounds to inhibit CNV progression. CNV is the main cause of severe vision loss in patients suffering from age-related macular degeneration (AMD).
Male Brown-Norway rats (Charles River Japan Co., Ltd.) were used in these studies.
Rats were anesthetized by intraperitoneal injection of pentobarbital, and the right pupil was dilated with 0.5% tropicamide and 0.5% phenylephrine hydrochloride. The right eye received 6 laser burns between retinal vessels using a slit lamp delivery system of Green laser Photocoagulator (Nidex Inc., Japan), and microscope slide glass with 10 mg/mL hyaluronic acid (SIGMA) used as a contact lens. The laser power was 200 mW for 0.1 second and spot diameter was 100 μm. At the time of laser burn, bubble production was observed; which is an indication of rupture of Bruch's membrane which is important for CNV generation.
After animals were anesthetized, and the right pupil dilated (as mentioned above), the right eye of the animal received the compound or vehicle by an injection (3 μL/eye) at doses of 0.3 to 30 nmol/eye on Day 3. The compounds were dissolved or suspended in CBS, PBS, or other adequate vehicles before injection.
On Day 10, the animals were anesthetized with ether, and high molecular weight fluorescein isothiocyanate (FITC)-dextran (SIGMA, 2×106 MW) was injected via a tail vein (20 mg/rat). About 30 min after FITC-dextran injection, animals were euthanized by ether or carbon dioxide, and the eyes were removed and fixed with 10% formaline neutral buffer solution. After over 1 hour of fixation, RPE-choroid-sclera flat mounts were obtained by removing comea, lens and retina from the eyeballs. The flat mounts were mounted in 50% glycerol on a microscope slide, and the portion burned by laser was photographed using a fluorescence microscope (Nikon Corporation, excitation filter: 465-495 nm, absorption filter: 515-555 nm). The CNV area was obtained by measurement of hyper-fluorescence area observed on the photograph using Scion image.
The average CNV area of 6 burns was used as an individual value of CNV area, and the average CNV area of compound treated group was compared with that of the vehicle-treated group.

[2] = target: T1, VEGFR2 (KDR) (Homo sapiens, UniProt P35968); test: In Vitro Receptor Tyrosine Kinase Assay (VEGF Receptor KDR); assay type: biochemical; details: recombinant GST-VEGFR2 806-1356, DELFIA assay, ATP 0.6 uM, enzyme 5 nM; read-out: VEGFR_IC50_UM
T1 construct: made in house; host or cells: Sf9 cells (Spodoptera frugiperda), baculovirus (Bac-to-Bac)
T1 sequence (P35968 806-1356): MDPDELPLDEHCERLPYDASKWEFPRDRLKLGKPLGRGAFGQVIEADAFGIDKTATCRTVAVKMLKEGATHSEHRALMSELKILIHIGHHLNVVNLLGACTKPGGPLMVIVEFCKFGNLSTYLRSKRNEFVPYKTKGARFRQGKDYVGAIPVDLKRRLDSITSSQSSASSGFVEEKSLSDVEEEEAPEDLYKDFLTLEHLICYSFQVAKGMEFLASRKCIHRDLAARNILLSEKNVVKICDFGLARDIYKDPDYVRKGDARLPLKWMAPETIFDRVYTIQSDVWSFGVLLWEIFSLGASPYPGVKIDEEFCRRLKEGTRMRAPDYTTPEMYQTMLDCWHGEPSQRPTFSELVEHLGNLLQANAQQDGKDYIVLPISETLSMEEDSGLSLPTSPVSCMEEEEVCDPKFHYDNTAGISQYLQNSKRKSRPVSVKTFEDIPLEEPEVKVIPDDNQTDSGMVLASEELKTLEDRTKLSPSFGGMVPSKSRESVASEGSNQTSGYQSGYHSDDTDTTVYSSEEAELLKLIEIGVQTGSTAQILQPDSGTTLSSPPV
Excerpt: In Vitro Receptor Tyrosine Kinase Assay (VEGF Receptor KDR)
This test measures the ability of compounds to inhibit the enzymatic activity of recombinant human VEGF receptor enzymatic activity.
A 1.6-kb cDNA corresponding to the catalytic domain of VEGFR2 (KDR) (Genbank accession number AF035121 amino acid 806 to 1356) is cloned into the Pst I site of the pDEST20 Gateway vector (Invitrogen) for the production of a GST-tagged version of that enzyme. This construct is used to generate recombinant baculovirus using the Bac-to-Bac™ system according to the manufacturer's instructions (Invitrogen).
The GST-VEGFR2806-1356 protein is expressed in Sf9 cells (Spodoptera frugiperda) upon infection with recombinant baculovirus construct. Briefly, Sf9 cells grown in suspension and maintained in serum-free medium (Sf900 II supplemented with gentamycin) at a cell density of about 2×10^6 cells/ml are infected with the above-mentioned viruses at a multiplicity of infection (MOI) of 0.1 during 72 hours at 27° C. with agitation at 120 rpm on a rotary shaker. Infected cells are harvested by centrifugation at 398 g for 15 min. Cell pellets are frozen at […] until purification is performed.
All steps described in cell extraction and purification are performed at 4° C. Frozen Sf9 cell pellets infected with the GST-VEGFR2806-1356 recombinant baculovirus are thawed and gently resuspended in Buffer A (PBS pH 7.3 supplemented with 1 μg/ml pepstatin, 2 μg/ml Aprotinin and leupeptin, 50 μg/ml PMSF, 50 μg/ml TLCK and 10 μM E64 and 0.5 mM DTT) using 3 ml of buffer per gram of cells. Suspension is Dounce homogenized and 1% Triton X-100 is added to the homogenate after which it is centrifuged at 22500 g, 30 min., 4° C. The supernatant (cell extract) is used as starting material for purification of GST-VEGFR2806-1356.
The supernatant is loaded onto a GST-agarose column (Sigma) equilibrated with PBS pH 7.3. Following a four column volume (CV) wash with PBS pH 7.3+1% Triton X-100 and 4 CV wash with buffer B (50 mM Tris pH 8.0, 20% glycerol and 100 mM NaCl), bound proteins are step eluted with 5 CV of buffer B supplemented with 5 mM DTT and 15 mM glutathion. GST-VEGFR2806-1356 enriched fractions from this chromatography step are pooled based on U.V. trace i.e. fractions with high O.D.280. Final GST-VEGFR2806-1356 protein preparations concentrations are about 0.7 mg/ml with purity approximating 70%. Purified GST-VEGFR2806-1356 protein stocks are aliquoted and frozen at −80° C. prior to use in enzymatic assay.
Inhibition of VEGFR/KDR is measured in a DELFIA™ assay (Perkin Elmer). The substrate poly(Glu4,Tyr) is immobilized onto black high-binding polystyrene 96-well plates. The coated plates are washed and stored at 4° C. During the assay, the enzyme is pre-incubated with inhibitor and Mg-ATP on ice in polypropylene 96-well plates for 4 minutes, and then transferred to the coated plates. The subsequent kinase reaction takes place at 30° C. for 10-minutes. ATP concentrations in the assay are 0.6 uM for VEGFR/KDR (2× the Km). Enzyme concentration is 5 nM. After incubation, the kinase reactions are quenched with EDTA and the plates are washed. Phosphorylated product is detected by incubation with Europium-labeled anti-phosphotyrosine MoAb. After washing the plates, bound MoAb is detected by time-resolved fluorescence in a Gemini SpectraMax reader (Molecular Devices). Compounds are evaluated over a range of concentrations, and IC50 values (concentration of compounds giving 50% inhibition of enzymatic activity) are determined.

Structure (SMILES): COCCN(Cc1ccc(-c2cc3nccc(Oc4ccc(Nc5nc6cc(Cl)ccc6[nH]5)cc4F)c3s2)nc1)C(C)=O [Compound 64]
CNV area, average ([1]; 0.3 nmol/eye): 0.085 mm^2
CNV area, individual animal ([1]; 0.3 nmol/eye): 0.091 mm^2 and 0.094 mm^2 and 0.045 mm^2 and 0.050 mm^2 and 0.116 mm^2 and 0.147 mm^2 and 0.069 mm^2 and 0.084 mm^2 and 0.072 mm^2
CNV area % of control ([1]; 0.3 nmol/eye): 105.6%
inhibition (CNV area) ([1]; 0.3 nmol/eye): −5.6
CNV area, average ([1]; 1 nmol/eye): 0.077 mm^2
CNV area, individual animal ([1]; 1 nmol/eye): 0.045 mm^2 and 0.092 mm^2 and 0.101 mm^2 (2×) and 0.088 mm^2 and 0.061 mm^2 and 0.109 mm^2 and 0.056 mm^2 and 0.040 mm^2
CNV area % of control ([1]; 1 nmol/eye): 95.3%
inhibition (CNV area) ([1]; 1 nmol/eye): 4.7
CNV area, average ([1]; 3 nmol/eye): 0.065 mm^2
CNV area, individual animal ([1]; 3 nmol/eye): 0.070 mm^2 (2×) and 0.019 mm^2 and 0.081 mm^2 and 0.084 mm^2 and 0.062 mm^2 and 0.056 mm^2 and 0.086 mm^2 and 0.054 mm^2
CNV area % of control ([1]; 3 nmol/eye): 80.0%
inhibition (CNV area) ([1]; 3 nmol/eye): 20.0
CNV area, average ([1]; 10 nmol/eye): 0.045 mm^2
CNV area, individual animal ([1]; 10 nmol/eye): 0.030 mm^2 and 0.003 mm^2 and 0.051 mm^2 and 0.058 mm^2 and 0.064 mm^2 and 0.035 mm^2 and 0.097 mm^2 and 0.039 mm^2 and 0.032 mm^2
CNV area % of control ([1]; 10 nmol/eye): 56.2%
inhibition (CNV area) ([1]; 10 nmol/eye): 43.8
CNV area, average ([1]; 30 nmol/eye): 0.036 mm^2
CNV area, individual animal ([1]; 30 nmol/eye): 0.047 mm^2 and 0.031 mm^2 and 0.036 mm^2 and 0.048 mm^2 and 0.037 mm^2 and 0.027 mm^2 (2×) and 0.051 mm^2 and 0.019 mm^2
CNV area % of control ([1]; 30 nmol/eye): 44.4%
inhibition (CNV area) ([1]; 30 nmol/eye): 55.6
IC50 [2]: 31 nM

Structure (SMILES): COCCN(Cc1ccc(-c2cc3nccc(Oc4ccc(NC(=O)NC5COC5)cc4F)c3s2)nc1)C(C)=O [Compound 106]
IC50 [2]: 12 nM

Structure (SMILES): COCCN(Cc1ccc(-c2cc3nccc(Oc4ccc(NC(=O)NC5COC5)c(F)c4F)c3s2)nc1)C(C)=O [Compound 109]
IC50 [2]: 11 nM

Structure (SMILES): CC(C)(C)OC(=O)N1CC(NC(=O)Nc2ccc(Oc3ccnc4cc(-c5ccc(CN6CCOC6=O)cn5)sc34)c(F)c2)C1 [Compound 111]
IC50 [2]: 59 nM

More lines, in order of falling IC50 [2], values ahead:

IC50 [2]: 95 nM
Structure (SMILES): CC(=O)N1CC(NC(=O)Nc2ccc(Oc3ccnc4cc(-c5ccc(CN6CCOC6=O)cn5)sc34)c(F)c2)C1 [Compound 113, 1-(1-Acetylazetidin-3-yl)-3-(3-fluoro-4-(2-(5-((2-oxooxazolidin-3-yl)methyl)pyridin-2-yl)thieno[3,2-b]pyridin-7-yloxy)phenyl)urea]

IC50 [2]: 56 nM
Structure (SMILES): CN(C)[C@H]1CCN(C(=O)c2cc3nccc(Oc4ccc(NC(=O)NC5COC5)cc4F)c3s2)C1 [Compound 107]

IC50 [2]: 37 nM
Structure (SMILES): CC(=O)N1CC(NC(=O)Nc2ccc(Oc3ccnc4cc(-c5ccc(CN6CCCC6=O)cn5)sc34)c(F)c2)C1 [Compound 112, 1-(1-Acetylazetidin-3-yl)-3-(3-fluoro-4-(2-(5-((2-oxopyrrolidin-1-yl)methyl)pyridin-2-yl)thieno[3,2-b]pyridin-7-yloxy)phenyl)urea]

IC50 [2]: 31 nM
Structure (SMILES): COCCN(Cc1ccc(-c2cc3nccc(Oc4ccc(NC(=O)NC5COC5)c(F)c4F)c3s2)nc1)C(=O)OC(C)(C)C [Compound 108]

IC50 [2]: 17 nM
Structure (SMILES): CC(C)(C)OC(=O)N1CC(NC(=O)Nc2ccc(Oc3ccnc4cc(-c5ccc(CN6CCCC6=O)cn5)sc34)c(F)c2)C1 [Compound 110]
